Reference: patent US8268775B2, “Macrolactone derivatives” (Sanofi, priority 2007, dated 2012)
≈ marks a conversion by molar mass, not a printed value.

Tested on: Candida albicans FH 2173
Assay: Antifungal activity against Candida albicans, bouillon dilution method (microdilution)
Format: cell-based
Settings: FH2173, growth inhibition by 50%, Mueller Hinton broth, 37° C., 20 hours, absorption at 590 nm
Description: For the detection of the antifungal activity of rapidly growing, aerobic causative organisms, the bouillon dilution method (microdilution) according to a procedure of the CLSI (Clinical and Laboratory Standards Institute, M7-A7, Vol. 26, No. 2) is used. The IC50 value was determined. This is the concentration of an active substance which is necessary in order to inhibit the growth of the test organism Candida albicans by 50%.
A stock solution of 1000 μg/ml of active substance [for example the compound of the formula (II) or the compound of the formula (IV)] in methanol was prepared. The test strain (Candida albicans FH 2173) was stored at −80° C. The inoculum was prepared from a fresh, liquid preculture. The preculture was prepared from a bead of the material stored at −80° C. and 30 ml of nutrient medium (Sabourad dextrose broth, Difco) and incubated at 37° C. and 180 revolutions per minute for 24 hours. The inoculum is to be adjusted such that after the inoculation of the test container the necessary number of colony-forming units is achieved. For this, the inoculum was adjusted to a value of 10^7 CFU/ml (CFU: colony forming units) by means of a photometer at a wavelength of 590 nm. […] The exact colony count was determined by means of surface culture. […] The microtiter plates were read with the aid of a photometer at a wavelength of 590 nm by measurement of the absorption. […]

| Compound | IC50 |
| --- | --- |
| CCC(C)C1C(=O)NC(Cc2cc(Cl)c(OC)c(Cl)c2)C(=O)NC(C(C)(C)O)C(=O)OC(c2ccccc2)C(C)/C=C/C=C(\C)C(OC)CC2OC2(C)C(=O)N1C (centres unmarked) [Compound (IV)] | 0.41 µg/mL (≈ 0.493 µM) |
| CCC(C)C1C(=O)NC(Cc2cc(Cl)c(O)c(Cl)c2)C(=O)NC(C(C)(C)O)C(=O)OC(c2ccccc2)C(C)/C=C/C=C(\C)C(OC)CC2OC2(C)C(=O)N1C (centres unmarked) [Compound (II)] | 0.06 µg/mL (≈ 0.0735 µM) |
